Among the test systems are OVCAR-4; COLO 205; UACC-62; HCT-15; KM12; TK-10; SK-MEL-2; CAKI-1; SF-539; HL-60; SF-295; K562; SR; HOP-62; UO-31; NCI-H522; NCI-H460; M19-MEL; BT-549; MDA-MB-435.
Experiment in all cases: growth of human tumour cells (NCI), 48 h

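Following 48 hours of exposure in 96-well plates, responses at five concentrations were used to interpolate endpoints linearly. GI50: concentration for 50% inhibition of growth.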 Active and inactive are the calls of the source. No stated cut-off is given here; in the data, active = GI50 up to about 1.1 µM and inactive = higher. Where only a bound is given, the exact number is not on record here.

For the molecule `COc1cc(OC)cc(C(=O)Cc2c(C(=O)c3ccccc3)c3ccccc3n2C(=O)c2ccccc2)c1`, the GI50 is 15.3 µM (inactive) in the experiment on OVCAR-4; 28.6 µM (inactive) in the experiment with COLO 205; 35.4 µM (inactive) in the experiment with UACC-62; 31.3 µM in the experiment on HCT-15; 33.7 µM (inactive) in the experiment on KM12; 38.5 µM (inactive) in the experiment on TK-10. Moreover, the GI50 was 20.5 µM (inactive) in the experiment on SK-MEL-2; 50.5 µM (inactive) with CAKI-1; 30.2 µM (inactive) with SF-539; 34.5 µM (inactive) with HL-60; 19.5 µM (inactive) with SF-295; 16.7 µM (inactive) in the experiment on K562. Also, the GI50 in the experiment on SR is 14.2 µM (inactive); in the experiment with HOP-62 it was 93.5 µM (inactive); with UO-31, 24.4 µM (inactive); with NCI-H522, 6 µM (inactive); with NCI-H460, 15.5 µM (inactive); in the experiment with M19-MEL it was 32 µM (inactive).

`C1CCN(c2nsc(N3CCCCC3)n2)CC1`: the GI50 with OVCAR-4 was > 100 µM (inactive); with UACC-62 it was > 100 µM (inactive); with HCT-15, > 100 µM; in the experiment on KM12, > 100 µM (inactive); with TK-10, > 100 µM (inactive); in the experiment with SK-MEL-2 it was > 100 µM (inactive). The GI50 in the experiment on CAKI-1 was > 100 µM (inactive); in the experiment with SF-539 it was > 100 µM (inactive); in the experiment with HL-60, 92 µM (inactive); in the experiment with SF-295, > 100 µM (inactive); in the experiment with K562, > 100 µM (inactive); with SR, > 100 µM (inactive). Moreover, the GI50 in the experiment on HOP-62, in the experiment with UO-31, in the experiment on NCI-H522, in the experiment on NCI-H460 and in the experiment with M19-MEL was > 100 µM (inactive) each time.

Consider `CC1=CCC2(C#N)CCC1C2=O` (stereo unspecified), for which the GI50 in the experiment on OVCAR-4 was > 100 µM (inactive); in the experiment with COLO 205, > 100 µM (inactive); with UACC-62, > 100 µM (inactive); with HCT-15 it was > 100 µM; in the experiment on KM12, > 100 µM (inactive); with TK-10, > 100 µM (inactive). Besides, the GI50 in the experiment with SK-MEL-2, in the experiment with CAKI-1, in the experiment on SF-539, with HL-60, with SF-295 and with K562 was > 100 µM (inactive) in each case. In addition, the GI50 with SR, in the experiment on HOP-62, with UO-31, with NCI-H522, with NCI-H460 and in the experiment on M19-MEL was > 100 µM (inactive) each time.

As for `Cc1cc(N(CCOS(C)(=O)=O)CCOS(C)(=O)=O)ccc1/C=N/c1ccc(-c2nc(Cc3ccccc3)sc2C)cc1`, the GI50 in the experiment with OVCAR-4 is 15.5 µM (inactive); in the experiment on COLO 205, 1.43 µM (inactive); with UACC-62, 1.47 µM (inactive); with HCT-15, 11.2 µM; with KM12, 14.2 µM (inactive); with TK-10 it was 4.6 µM (inactive). For the same molecule, the GI50 is 15.3 µM (inactive) with SK-MEL-2; 1.23 µM (inactive) in the experiment with CAKI-1; 1.8 µM (inactive) in the experiment with SF-539; 1.17 µM (inactive) in the experiment with HL-60; 1.57 µM (inactive) in the experiment with SF-295; 5.61 µM (inactive) in the experiment with K562. In addition, the GI50 was 1.32 µM (inactive) with SR; 9.12 µM (inactive) in the experiment with BT-549; 1.75 µM (inactive) with HOP-62; 3.71 µM (inactive) in the experiment on UO-31; 0.233 µM (active) in the experiment on NCI-H522; 0.0281 µM (active) with NCI-H460. Besides, the GI50 was 11 µM (inactive) in the experiment on MDA-MB-435 and 10 µM (inactive) in the experiment with M19-MEL.

With `N#CC(N)(C(=O)C(=O)NCCCNC(=O)C(=O)C(N)(C#N)c1ccc(Cl)cc1)c1ccc(Cl)cc1` (stereo unspecified), the GI50 is > 100 µM (inactive) with OVCAR-4; > 100 µM (inactive) in the experiment on COLO 205; > 100 µM (inactive) in the experiment on UACC-62; > 100 µM in the experiment on HCT-15; > 100 µM (inactive) in the experiment on KM12; > 100 µM (inactive) in the experiment on TK-10. Also, the GI50 with SK-MEL-2 was > 100 µM (inactive); in the experiment on CAKI-1 it was > 100 µM (inactive); with SF-539, > 100 µM (inactive); in the experiment with HL-60, 54.7 µM (inactive); with SF-295, > 100 µM (inactive); with K562 it was 95.3 µM (inactive). The GI50 with SR, with HOP-62, with UO-31, with NCI-H522, in the experiment with NCI-H460 and in the experiment with M19-MEL was > 100 µM (inactive) each time.

For the molecule `CC(C)CN(CC(C)C)C(=O)C1CCCC[C@@H]1C(=O)O` (stereo partly specified), the GI50 was > 100 µM (inactive) in the experiment on OVCAR-4; > 100 µM (inactive) in the experiment with COLO 205; > 100 µM (inactive) in the experiment on UACC-62; > 100 µM in the experiment on HCT-15; > 100 µM (inactive) with KM12; > 100 µM (inactive) with TK-10. Also, the GI50 with SK-MEL-2, with CAKI-1, in the experiment with SF-539, with HL-60, in the experiment on SF-295 and with K562 was > 100 µM (inactive) throughout. The GI50 in the experiment with SR, in the experiment with HOP-62, with UO-31, in the experiment on NCI-H522, in the experiment with NCI-H460 and in the experiment with M19-MEL was > 100 µM (inactive) in each case.

As to `O=C(COc1ccc(Cl)cc1)N1N=C(c2ccc(Cl)cc2)CC1(O)c1ccccc1` (stereo unspecified), the GI50 in the experiment on OVCAR-4 is 7.48 µM (inactive); with COLO 205, 21 µM (inactive); in the experiment on UACC-62, 15.9 µM (inactive); with HCT-15, 13.1 µM; in the experiment with KM12, 14.2 µM (inactive); in the experiment on TK-10 it was 26.7 µM (inactive). In addition, the GI50 in the experiment with SK-MEL-2 was 24.3 µM (inactive); in the experiment with CAKI-1, 20.9 µM (inactive); in the experiment with SF-539, 24.8 µM (inactive); in the experiment on HL-60, 6.5 µM (inactive); in the experiment on SF-295 it was 23.8 µM (inactive); in the experiment with K562, 9.73 µM (inactive). Moreover, the GI50 was 3.69 µM (inactive) in the experiment on SR; 23.4 µM (inactive) in the experiment with HOP-62; > 23.7 µM (inactive) in the experiment with UO-31; 14.3 µM (inactive) in the experiment on NCI-H522; 15.2 µM (inactive) in the experiment on NCI-H460; 24 µM (inactive) with M19-MEL.

Turning to `CC1=C2C(=O)C3[C@@H](CCC4=CC(=O)CC[C@@]43C)C2CC[C@]12O[C@@H]1C[C@H](C)CN[C@H]1[C@H]2C` (stereo partly specified), the GI50 is > 100 µM (inactive) in the experiment on OVCAR-4; 73.6 µM (inactive) in the experiment on COLO 205; 23.4 µM (inactive) with UACC-62; 48.8 µM in the experiment with HCT-15; 30.1 µM (inactive) in the experiment with KM12; 29.2 µM (inactive) in the experiment with TK-10. In addition, the GI50 in the experiment on SK-MEL-2 is 21.1 µM (inactive); in the experiment with CAKI-1, > 100 µM (inactive); in the experiment on SF-539, 45.4 µM (inactive); in the experiment on HL-60 it was 12.3 µM (inactive); in the experiment with SF-295, 32.8 µM (inactive); in the experiment with K562 it was 17.4 µM (inactive). Also, the GI50 with SR was 17.1 µM (inactive); in the experiment on HOP-62 it was 16.9 µM (inactive); in the experiment with UO-31, 63.7 µM (inactive); in the experiment with NCI-H522 it was 21 µM (inactive); in the experiment on NCI-H460, 33.5 µM (inactive); in the experiment with M19-MEL it was 36.2 µM (inactive).

`NS(=O)(=O)c1ccc(NC(=O)COC(=O)c2cccc3c(=O)c4ccccc4[nH]c23)cc1`: the GI50 in the experiment with OVCAR-4 is 25.5 µM (inactive); in the experiment with COLO 205 it was > 88.3 µM (inactive); with UACC-62, 14.6 µM (inactive); with HCT-15, 53.5 µM; in the experiment on KM12 it was 31.6 µM (inactive); with TK-10 it was 24.7 µM (inactive). Moreover, the GI50 with SK-MEL-2 is 19.5 µM (inactive); with CAKI-1, > 52.5 µM (inactive); in the experiment on SF-539 it was 16.3 µM (inactive); with HL-60, > 100 µM (inactive); with SF-295, 23.9 µM (inactive); with K562, > 100 µM (inactive). The GI50 with SR is 4.03 µM (inactive); in the experiment with HOP-62, 18.5 µM (inactive); in the experiment with UO-31, 23.3 µM (inactive); in the experiment on NCI-H522 it was 12.3 µM (inactive); in the experiment with NCI-H460 it was 33.8 µM (inactive); with M19-MEL, 31.3 µM (inactive).

For the molecule `O=C1C=CC(=O)N1Nc1ccc([N+](=O)[O-])cc1[N+](=O)[O-]`, the GI50 in the experiment with OVCAR-4 is > 42.3 µM (inactive); in the experiment with COLO 205, > 42.8 µM (inactive); in the experiment with UACC-62, > 100 µM (inactive); with HCT-15 it was > 74.1 µM; in the experiment on KM12, > 100 µM (inactive); in the experiment with TK-10, > 100 µM (inactive). The GI50 is > 100 µM (inactive) in the experiment on SK-MEL-2; > 47.9 µM (inactive) in the experiment with CAKI-1; > 100 µM (inactive) with SF-539; 25.8 µM (inactive) with HL-60; > 100 µM (inactive) with SF-295; > 42.4 µM (inactive) with K562. Also, the GI50 in the experiment with SR was > 38.5 µM (inactive); in the experiment on HOP-62 it was > 100 µM (inactive); in the experiment with UO-31 it was > 100 µM (inactive); with NCI-H522, > 42.7 µM (inactive); in the experiment on NCI-H460, > 100 µM (inactive); with M19-MEL, > 89.7 µM (inactive).

Source of the values: ChEMBL document CHEMBL1201862, “PubChem BioAssay data set” (2004).
